Measurements from patent US12697313B2, “Methods of treating anemia using formoterol or a pharmaceutically acceptable salt thereof” (Dana-Farber Cancer Institute, Inc., priority 2022, dated 2026).
Entries after “also recorded” stand apart in the source; their conditions may differ.

How the values were obtained:
[1] = test system: RIOK2 KD HSPCs; experiment: Erythroid differentiation in RIOK2 knockdown HSPCs; type: cell-based, human; conditions: RIOK2 KD HSPCs vs DMSO; FIG. 6B, FIG. 45
Description: (§1) Since RIOK2-deficient primary human HSPCs effectively model impaired erythropoiesis leading to anemia (Ghosh et la. (2022) Nat Immunol 23: 109-121), it was next investigated whether treatment with formoterol fumarate (FF) alleviates anemia in this in vitro model. To address this, RIOK2-proficient and deficient primary human HSPCs via CRISPR-Cas9 based genome-editing were generated (FIG. 6A), as previously described (Ghosh et al. (2022) Nat Immunol 23: 109-121). […] Since RPS14 deletion is reported to be MDS-genic (Ebert et al. (2008) Nature 451: 335-339; Schneider et al. (2016) Nat Med 22: 288-297), RPS14 was similarly knocked down in primary human HSPCs (FIG. 6C).
(§2) Primary human HSPCs were genome-edited, as previously described (Ghosh, S., Raundhal, M., Myers, S. A., Carr, S. A., Chen, X., Petsko, G. A., and Glimcher, L. H. (2022). Identification of RIOK2 as a master regulator of human blood cell development. Nat Immunol 23, 109-121).

[2] = test system: RPS14 KD HSPCs; experiment: Erythroid differentiation in RPS14 knockdown HSPCs; type: cell-based, human; conditions: RPS14 KD HSPCs vs DMSO; FIG. 6D, FIG. 46
Description: as §1
Next, to validate the specificity of FF for β2-adrenoreceptors, ADRB2 was knocked down in primary human HSPCs and treated with FF.
as §2

[3] = test system: phenylhydrazine (PHZ)-treated mice; experiment: FF/Arf i.p. in PHZ-treated mice at sub-lethal dose of 60 mg/kg; type: in vivo
[4] = test system: PHZ-induced lethal hemolytic anemia mice; experiment: PHZ-mediated lethal hemolytic anemia, FF i.p.; type: in vivo; conditions: for body weights: 0.1/0.3 mg/kg
Experimental: To this end, 10-12 week old male C57BL/6J mice were first treated with a single lethal dose of 150 mg/kg PHZ followed by daily i.p. injections of either vehicle or 0.1/0.3 mg/kg FF. […] All control mice (n=5) were moribund and died by 3 days of lethal PHZ dose, whereas 3-4 mice in 0.1/0.3 mg/kg FF treatment groups are still surviving post 2 weeks of lethal dose (FIG. 42A). […] FF injections were stopped after 7 days of lethal PHZ treatment and it was observed that the body weights of mice were held steady (FIG. 42B). The body weights and survival of these mice are being monitored daily. This unexpected finding prompted us to repeat this lethal hemolytic anemia model in the female mice. […] The FF treatment lasted for 7 days after lethal PHZ dose and the body weights and survival of these mice are being monitored daily.

[5] = test system: wild-type mice; experiment: FF oral gavage in wild-type mice at steady-state; type: in vivo
Description: N=5 mice per group. All comparisons were done w.r.t. vehicle treated (DMSO) controls.

[6] = test system: PHZ-induced lethal hemolytic anemia mice; experiment: PHZ lethal dose (135 mg/kg), FF oral gavage; type: in vivo; conditions: 0.1/0.5 mg/kg o.g.; PHZ 135 mg/kg; FIG. 54
Description: Log-rank (Mantel-Cox) test. n=5 mice per group. All comparisons were done w.r.t. vehicle (DMSO) treated controls.

[7] = test system: phenylhydrazine (PHZ)-treated mice; experiment: FF oral gavage in PHZ-treated mice at sub-lethal dose of 60 mg/kg; type: in vivo
[8] = test system: wild-type C57BL/6J mice; experiment: Dose-specific effects of FF i.p. daily for 30 days in naive wild-type mice (Example 3); type: in vivo; conditions: for monocyte counts: FIG. 85B; for hemoglobin (Hb) levels: FIG. 84A; for RBC parameters (Hb, HCT %, RBC numbers): FIG. 84
Experimental: As described in Example 1 above, formoterol fumarate (FF) treatment of wild-type mice was well-tolerated (FIGS. 14A-14E). The effects of varying doses of FF from 0.1 up to 1.0 mg/kg were evaluated in naive mice without any external stress of phenylhydrazine (PHZ). Specifically, varying doses of FF 0.1-0.3-0.5-1.0 mg/kg or vehicle (0.3% DMSO in saline) were administered via intraperitoneal (i.p.) injection in 10-12 week old wild-type C57BL/6J mice daily for a period of 30 days.

[9] = test system: ovariectomized rat models; conditions: ovariectomized rat models (Kellenberger et al. 1998); cited from earlier work
[10] = female, PHZ 120 mg/kg, FF 0.1 mg/kg, n=5
[11] = female, PHZ 120 mg/kg, FF 0.3 mg/kg, n=5
[12] = male, PHZ 150 mg/kg, FF 0.1 mg/kg, n=5
[13] = male, PHZ 150 mg/kg, FF 0.3 mg/kg, n=5
[14] = 14 days of daily o.g., PHZ 60 mg/kg, FIG. 59

Q: What does the source list for `COc1ccc(C[C@@H](C)NC[C@H](O)c2ccc(O)c(NC=O)c2)cc1.O=C(O)/C=C/C(=O)O` [FF, (E)-but-2-enedioic acid;N-[2-hydroxy-5-[(1R)-1-hydroxy-2-[[(2R)-1-(4-methoxyphenyl)propan-2-yl]amino]ethyl]phenyl]formamide]?
A: erythroid differentiation (CD235a) [1]: stimulated erythropoiesis in RIOK2-knockdown (KD) HSPCs; also recorded: to levels comparable with basal erythropoiesis in control cells; also recorded: increases erythroid differentiation (CD235a) in RIOK2 KD HSPCs; also recorded: markedly rescues erythropoiesis; erythroid differentiation (CD235a) [2]: significantly increased erythroid differentiation in RPS14 KD HSPCs; also recorded: increases erythroid differentiation (CD235a) in RPS14 KD HSPCs; also recorded: moderately rescues erythropoiesis; colony forming unit-erythroid (CFU-e) from BM ([3]; 0.3 mg/kg i.p., FIG. 39A): enhances colony forming unit-erythroid (CFU-e); transferrin receptor expression in CFU-e derived from BMPs ([3]; FIG. 39B): transferrin receptor expression is enhanced; Hemoglobin (Hb) in peripheral blood ([3]; after 7 and 14 days of i.p., FIG. 35): increase Hemoglobin (Hb); RBC parameters (HCT % and RBCs) in peripheral blood ([3]; after 7 days of i.p., FIG. 34): increases RBC parameters; LS-K and LSK cells in bone marrow progenitors ([3]; after 14 days of i.p., FIG. 36A-36B): increase LSK, LS-K, and mitochondrial activity; mitochondrial membrane potential (TMRE staining) in bone marrow progenitors ([3]; after 14 days of i.p., FIG. 36C): increase LSK, LS-K, and mitochondrial activity; megakaryocyte erythrocyte progenitors (MEP) in BM ([3]; after 14 days of i.p., FIG. 37A): increase megakaryocyte erythrocyte progenitors (MEP); body weights ([3]; i.p., PHZ 60 mg/kg, FIG. 32): enhances body weights; platelets and WBCs in peripheral blood ([3]; i.p., PHZ 60 mg/kg, FIG. 33): do not affect platelets and WBCs; survival (Kaplan-Meier) ([4]; female mice, PHZ 120 mg/kg, FF 0.1/0.3 mg/kg, FIG. 42C): provided prominent survival benefits; body weights ([4]; female, PHZ 120 mg/kg, FIG. 42D): similarly revived body weights; also recorded: steadily increases body weights of female mice; mice died on day 2 [4, 10]: 1 mouse; mice still surviving post lethal PHZ dose [4, 10]: 4 mice; mice died on day 2 [4, 11]: 2 mice; mice still surviving post lethal PHZ dose [4, 11]: 3 mice; survival (Kaplan-Meier) ([4]; male mice, PHZ 150 mg/kg, FF 0.1/0.3 mg/kg daily i.p., FIG. 42A): produced striking survival benefits; mice still surviving post 2 weeks of lethal dose ([4]; male, PHZ 150 mg/kg, 0.1/0.3 mg/kg FF groups, n=5): 3-4 mice; body weights ([4]; male, PHZ 150 mg/kg, FIG. 42B): produced remarkable revival in body weights; also recorded: steadily increases body weights of male mice; mice died on day 2 [4, 12]: 2 mice; mice still surviving post lethal PHZ dose [4, 12]: 3 mice; mice died on day 2 [4, 13]: 1 mouse; mice still surviving post lethal PHZ dose [4, 13]: 4 mice; RBC parameters (HCT %, RBC numbers, Hb) in peripheral blood ([5]; 14 days of daily o.g., FIG. 48): increases RBC parameters; WBCs, monocytes and platelets in peripheral blood ([5]; 14 days of daily o.g., FIG. 49): does not affect WBC parameters; mitochondrial membrane potential (TMRE staining) in BMPs ([5]; 14 days of daily o.g., FIG. 50): increases viability and mitochondrial membrane potential; viability of bone marrow progenitors (BMPs) ([5]; 14 days of daily o.g., FIG. 50): increases viability and mitochondrial membrane potential; MEP and MkP ([5]; 14 days of daily o.g., FIG. 51): increases megakaryocyte erythroid progenitors (MEP) and megakaryocytic progenitors (MkP); granulocyte monocyte progenitors (GMP) ([5]; 14 days of daily o.g., FIG. 51): does not affect granulocyte monocyte progenitors (GMP); % change in body weights ([5]; o.g., steady state, FIG. 53): mildly increases body weights; survival (Kaplan-Meier) [6]: confers striking survival benefits; granulocyte monocyte progenitors (GMP) ([7]; 14 days of daily o.g., FIG. 60): does not affect granulocyte monocyte progenitors (GMP); megakaryocytic progenitors (MkP) ([7]; 14 days of daily o.g., FIG. 60): increases megakaryocytic progenitors (MkP); mitochondrial membrane potential (TMRE staining) in BMPs [7, 14]: increases viability and mitochondrial membrane potential; viability of BMPs [7, 14]: increases viability and mitochondrial membrane potential; body weights ([7]; o.g., PHZ 60 mg/kg, FIG. 56): does not affect body weights; RBC parameters (HCT % and Hb) in peripheral blood ([7]; o.g., PHZ 60 mg/kg, FIG. 57): increases RBC parameters; WBC and platelets in peripheral blood ([7]; o.g., PHZ 60 mg/kg, FIG. 58): does not affect WBC and platelets; monocyte counts ([8]; 0.1 mg/kg and 1.0 mg/kg): but not at the lowest dose (0.1 mg/kg) or highest dose (1.0 mg/kg); hemoglobin (Hb) levels ([8]; 0.1 mg/kg to 0.5 mg/kg): increased with dose; hematocrit (HCT) % and RBC counts ([8]; 0.3 mg/kg and 0.5 mg/kg, FIG. 84B-84C): elevated; body weights ([8]; 1.0 mg/kg): pronounced increase in body weights; RBC parameters (Hb, HCT %, RBC numbers) ([8]; 1.0 mg/kg): this effect is not observed; hemoglobin (Hb) levels ([8]; 1.0 mg/kg): no effect was observed; white blood cell (WBC) count ([8]; 1.0 mg/kg, FIG. 85A): modestly impacts WBC; also recorded: only marginally affected; body weights ([8]; 0.1-0.5 mg/kg): modestly increasing body weights; % change in body weights ([8]; 0.1/0.3/0.5/1.0 mg/kg daily i.p., FIG. 83): increases body weights in a dose-dependent manner; also recorded: showed a dose-dependent increase in body-weight; RBC parameters (Hb, HCT %, RBC numbers) ([8]; 0.3 and 0.5 mg/kg): enhance and sustain RBC parameters; monocyte counts ([8]; 0.3 and 0.5 mg/kg): modestly impacts monocyte counts; also recorded: marginally affected; platelets ([8]; any dose, FIG. 85C): No significant effect was observed; white blood count (WBC) numbers ([8]; lowest doses, FIG. 85A): does not influence; effects on bone [9]: anabolic effects on bone
